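Each compound was tested at five concentrations against cells in 96-well plates for 48 hours. GI50 is the concentration that inhibits growth by half. TGI: concentration producing complete growth inhibition.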
Columns and labels:
Assay in all cases: NCI-60 cell line screen, 48 h
[1] = tested on: MDA-MB-435
[2] = tested on: OVCAR-8 ovarian
[3] = tested on: SN12C renal
[4] = tested on: T-47D breast
[5] = tested on: MALME-3M melanoma
[6] = tested on: IGROV1 ovarian
[7] = tested on: HCC-2998 colon
[8] = tested on: MOLT-4 leukemia
[9] = tested on: EKVX NSCLC
[10] = tested on: NCI-H23 lung
[11] = tested on: SF-268 CNS
[12] = tested on: OVCAR-5 ovarian
[13] = tested on: LOX IMVI melanoma
[14] = tested on: PC-3 prostate
[15] = tested on: MDA-MB-231 breast
[16] = tested on: UO-31 renal
[17] = tested on: DU-145 prostate
[18] = tested on: BT-549 breast
[19] = tested on: SNB-19 CNS
[20] = tested on: U251 CNS
[21] = tested on: RXF 393 renal
[22] = tested on: SF-539 CNS
[23] = tested on: SK-MEL-2 melanoma
[24] = tested on: HL-60(TB) leukemia
[25] = tested on: SK-MEL-5 melanoma
[26] = tested on: HT29 colon
[27] = tested on: HCT-116 colon
[28] = tested on: HCT-15 colon
[29] = tested on: NCI/ADR-RES ovarian
[30] = tested on: NCI-H460 lung
[31] = tested on: HS 578T breast
[32] = tested on: UACC-62 melanoma
[33] = tested on: CAKI-1 renal
[34] = tested on: A498 renal
[35] = tested on: SK-MEL-28 melanoma
[36] = tested on: SF-295 CNS
[37] = tested on: COLO 205 colon
[38] = tested on: NCI-H522 lung
[39] = tested on: CCRF-CEM leukemia
[40] = tested on: OVCAR-4 ovarian
[41] = tested on: HOP-62 NSCLC
[42] = tested on: UACC-257 melanoma
[43] = tested on: K-562 leukemia
[44] = tested on: RPMI-8226 leukemia
[45] = tested on: MDA-MB-468 breast
[46] = tested on: TK-10 renal
[47] = tested on: SW-620 colon
[48] = tested on: OVCAR-3 ovarian
[49] = tested on: HOP-92 NSCLC
[50] = tested on: SK-OV-3 ovarian
[51] = tested on: MCF7 breast
[52] = tested on: NCI-H226 lung
[53] = tested on: KM12 colon
[54] = tested on: SNB-75 CNS
[55] = tested on: M14 melanoma
[56] = tested on: ACHN renal
[57] = tested on: A549 NSCLC
[58] = tested on: 786-0 renal

## COC(=O)C[C@](O)(CCCC(C)(C)O)C(=O)O[C@H]1C(OC)=C[C@@]23CCCN2CCc2cc4c(cc2[C@@H]13)OCO4
[1]
  GI50: 1.25 µM
  TGI: 6.78 µM
[2]
  GI50: 1.42 µM
  TGI: 11.9 µM
[3]
  GI50: 1.61 µM
  TGI: 19.6 µM
[4]
  GI50: 1.2 µM
  TGI: 18.5 µM
[5]
  GI50: 0.691 µM
  TGI: 2.11 µM
[6]
  GI50: 1.32 µM
  TGI: 11.4 µM
[7]
  GI50: 0.545 µM
  TGI: 1.59 µM
[8]
  GI50: 0.255 µM
  TGI: 2.29 µM
[9]
  GI50: 1.67 µM
  TGI: 16.8 µM
[10]
  GI50: 0.996 µM
  TGI: 3.31 µM
[11]
  GI50: 2.9 µM
  TGI: 19.5 µM
[12]
  GI50: 1.55 µM
  TGI: 11.1 µM
[13]
  GI50: 0.481 µM
  TGI: 1.56 µM
[14]
  GI50: 1.14 µM
  TGI: 9.36 µM
[15]
  GI50: 2.24 µM
  TGI: 12.8 µM
[16]
  GI50: 4.55 µM
  TGI: 29.8 µM
[17]
  GI50: 1.12 µM
  TGI: 13.4 µM
[18]
  GI50: 0.823 µM
  TGI: 2.38 µM
[19]
  GI50: 0.757 µM
  TGI: 3.06 µM
[20]
  GI50: 1 µM
  TGI: 4.81 µM
[21]
  GI50: 0.447 µM
  TGI: 1.47 µM
[22]
  GI50: 0.673 µM
  TGI: 1.78 µM
[23]
  GI50: 3.23 µM
  TGI: 12.8 µM
[24]
  GI50: 0.456 µM
  TGI: 1.74 µM
[25]
  GI50: 0.614 µM
  TGI: 1.47 µM
[26]
  GI50: 0.953 µM
  TGI: 6.45 µM
[27]
  GI50: 0.717 µM
  TGI: 3.01 µM
[28]
  GI50: 4.65 µM
  TGI: 21.7 µM
[29]
  GI50: > 38.3 µM
  TGI: > 38.3 µM
[30]
  GI50: 0.21 µM
  TGI: 2.62 µM
[31]
  TGI: 9.75 µM
[32]
  GI50: 1.41 µM
  TGI: 10.6 µM
[33]
  GI50: 3 µM
  TGI: 29.7 µM
[34]
  GI50: 0.665 µM
  TGI: 3.66 µM
[35]
  GI50: 0.992 µM
  TGI: 4.26 µM
[36]
  GI50: 1.34 µM
  TGI: 11.8 µM
[37]
  GI50: 1.7 µM
  TGI: 6.87 µM
[38]
  GI50: 0.858 µM
  TGI: 2.32 µM
[39]
  GI50: 0.856 µM
  TGI: 3.02 µM
[40]
  GI50: 1.22 µM
  TGI: 10.3 µM
[41]
  GI50: 1.5 µM
  TGI: 16.2 µM
[42]
  GI50: 1.22 µM
  TGI: 8.48 µM
[43]
  GI50: 0.972 µM
  TGI: > 38.3 µM
[44]
  GI50: 0.93 µM
  TGI: 2.36 µM
[45]
  GI50: 0.613 µM
  TGI: 2.08 µM
[46]
  GI50: 3.03 µM
  TGI: 35.7 µM
[47]
  GI50: 1.15 µM
  TGI: > 38.3 µM
[48]
  GI50: 1.01 µM
  TGI: 4.14 µM
[49]
  GI50: 1.15 µM
  TGI: 11.7 µM
[50]
  GI50: 1.35 µM
  TGI: 26.4 µM
[51]
  GI50: 0.524 µM
  TGI: 2.11 µM
[52]
  GI50: 0.781 µM
  TGI: 3.56 µM
[53]
  GI50: 1.28 µM
  TGI: 17.5 µM
[54]
  GI50: 0.982 µM
  TGI: 8.37 µM
[55]
  GI50: 0.744 µM
  TGI: 1.88 µM
[56]
  GI50: 1.77 µM
  TGI: 16.2 µM
[57]
  GI50: 0.999 µM
  TGI: 8.72 µM
[58]
  GI50: 1.45 µM
  TGI: 9.56 µM

Source: PubChem BioAssay (NCI)
